Results on six molecules are retold here after patent US7049331B2, “1,2,4-thiadiazole derivatives as melanocortin receptor modulators” (Ortho-McNeil Pharmaceutical, Inc., priority 2001, dated 2006).

In test [1] the target is T1, melanocortin MC-4 receptor (Homo sapiens, UniProt P32245).
T1 construct: purchased Receptor Biology Inc
As to the kind of experiment: MC-4 receptor binding (Filtration). The note with it: Filtration; read-out: IC50 MC-4 (μM) (Filtration). As for the experimental part: The procedures described above for the melanocortin MC-4 receptor were repeated for the melanocortin MC-3 receptor. Following the procedures described, representative compounds of the present invention were tested for binding in the MC-4 and/or MC-3 assay, as listed in Table 4.

The target in test [2] is T1, melanocortin MC-4 receptor. The test can be described thus: Melanocortin MC-4 Receptor Binding Assay (SPA). An outline of the steps:
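Membranes bound to WGA SPA beads were incubated 16 h at 25° C with 40 pM ¹²⁵I-NDP-MSH and test compound (1 mM stock in 30% DMSO-HEPES pH 7.4). Nonspecific binding set with 1 μM NDP-MSH or α-MSH; percent inhibition from bound cpm.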

A further test concerns Food-Deprived Rats. The test can be described thus: Rodent Feeding: Food Intake in Food-Deprived Rats (MC-4). The format is in vivo, rat. Particulars: for change in vivo at 10 mg/kg / change in vivo at 30 mg/kg: Rattus norvegicus; for change in vivo at 30 mg/kg: po. From the text:
Rodent Feeding: Food Intake in Food-Deprived Rats (MC-4)
Male Long-Evans rats (180–200 grams) were housed individually and maintained on a once-a-day feeding schedule (i.e.10 a.m. until 4 p.m.) for five days following quarantine to allow the animals to acclimate to feeding on powdered chow (#5002 PMI Certified Rodent Meal) during the allotted time. The chow was made available in an open jar, anchored in the cage by a wire, with a metal follower covering the food to minimize spillage. Water was available ad-libitum.
Animals were fasted for 18 hours prior to testing. At the end of the fasting period, animals were administered either a test compound or vehicle. Vehicle and test compound were administered either orally (5 mL/kg) 60 minutes prior to the experiment, subcutaneously (1 mL/kg) 30 minutes prior to the experiment, or intraperitoneally (1 mL/kg) 30 minutes prior to the experiment. Test compounds were administered orally as a suspension in aqueous 0.5% methylcellulose-0.4% Tween 80, or intraperitoneally as a solution or suspension in PEG 200; compound concentrations typically ranged from 1 mg/kg to 100 mg/kg, preferably from 10–30 mg/kg. Food intake was measured at 2, 4, and 6 hours after administration by weighing the special jar containing the food before the experiment and at the specified times. Upon completion of the experiment, all animals were given a one-week washout period before re-testing.
Following the procedure described above, select compounds of the present invention were tested to measure the effect on food intake in fasted rats, as listed in Table 5 and 6.

The next test deals with Hippocampal Cells. The test can be described thus: Neurite Cell Outgrowth Assay, hippocampal cells. In kind it is cell-based. Particulars: Rattus norvegicus; 50 nM; percent change over the vehicle response; NA = no change/not active. An outline of the steps: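 Rat E18 hippocampal or cortical neurons plated at 30,000 cells/well, treated 24 h after plating with compound at 50 nM, refreshed on day 3. At one week, fixed and MAP-2 immunostained with FITC secondary, read by fluorescence; outgrowth given as percent change versus vehicle.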

Test [3] relates to human sebocytes. The test can be described thus: Visual observation of lipid granule formation in sebocytes. In kind it is cell-based. As for the experimental part: Semiconfluent cultures of 3T3 mouse fibroblasts (Swiss Albino mouse, ATCC CCL-92) were treated with mitomycin C (4 μg/ml) for 3 hours, trypsinized and seeded at a density of 2.5×10^5/9.5 cm^2 tissue culture plate in Dulbeccos Minimal Essential Medium (DMEM) containing 10% Colorado Calf Serum, PNC (100U/ml), STM (100 μg/ml), L glutamine (0.3 mg/ml), sodium pyruvate (1 mM) and nonessential amino acids (100 μM). The cells were incubated at 37° C. for 24 hours prior to their use as a feeder layer for sebocytes.
Human sebocytes were isolated from Dermatome shavings of postoperative pieces of human skin at 0.4–0.8 mm depths (this part of the skin was previously shown to be enriched in sebaceous glands). Shavings so obtained were treated with 1% Dispase in Iscoves medium containing 10% serum for 20 min at 37° C. The tissue was then placed in 0.3% trypsin/1% EDTA in Phosphate Buffered Saline (PBS) for 10 minutes at 37° C. Following this incubation the cells were gently scraped from the tissue in Growth medium (GM) containing DMEM/F12 media mixture (3:1), supplemented with 8% heat inactivated FBS, 2% heat inactivated human serum (HS), 1 mM sodium pyruvate, epidermal growth factor (10 ng/ml), insulin (10 μg/ml), hydrocortisone (0.4 μg/ml) and +/−cholera toxin (100 μg/ml), L-glutamine and antibiotics. Cells so obtained were filtered through nylon mesh ([…]), centrifuged at 750 RPM, re-suspended in GM and counted.
Resultant cells from the above isolation procedure were plated on the 3T3 feeder layers at 2×10^5/9.5 cm^2 in growth medium and maintained at 37° C. and 5% CO2 for 3 days (Phase I). Following the initial growth period they were transferred to a transition medium (TM) that consisted of DMEM/F12 media supplemented with 1 mM sodium pyruvate, insulin ([…]), transferrin ([…]) and selenium (5.5 μg/ml) (ITS), 2% heat inactivated FBS and 2% heat inactivated human serum as well as +/−cholera toxin (ch.t.) (100 μg/ml), L-glutamine and antibiotics (Phase II). Three days later the cells were changed to differentiation medium (DM), DMEM/F12 supplemented with ITS, 3,3′,5-triido-L-thyronine sodium (3 nM), 1%(v/v) trace element mix and the choice of differentiation agent i.e. bovine pituitary extract (10 μg/ml). This medium was changed every 3 days (Phase III).
Hormones, mixture of hormones i.e. bovine pituitary extract or compounds to be tested were added to the culture at the beginning of phase III. Two criteria were used to evaluate the effect of these materials on sebaceous cultures: 1) visual observations and 2) evaluation of sebaceous lipid accumulation and synthesis. The evaluation of lipid accumulation completed using the Nile red method. This method relies on visualization of neutral lipids by Nile red and quantitation by reading of fluorescence at 535 nm excitation, 580 nm emission using a plate reader. The lipid synthesis was evaluated by radioactive labeling using ^14C acetate and quantified by Bio Rad Phosphoimager (Molecular Imager, FX) using 4.1 Software.
Quantitation of accumulation/inhibition of neutral lipids in sebocytes was accomplished by Nile red binding assay. Briefly, following exposure of sebocytes to test compounds, the cells were allowed to interact with 1 μM Nile red in Hanks buffered saline solution containing DMSO and Pluronic F127. After 4 hours of incubation, washing and incubation overnight, the fluorescence was read at 535 excitation and 580 emission using a fluorescence plate reader.
Following the procedure described above, select compounds of the present invention were tested for visual and Nile red evaluation of lipid accumulation, with results as listed in Table 9.
Following the procedure described above, select compounds of the present invention were tested for their inhibitory effect on differentiation of human sebocytes. […]

Another test has as its target MC5-R (Homo sapiens, UniProt P33032). The test can be described thus: MC5-R binding.
For test [4], the system named is human sebocytes. The test can be described thus: Nile red evaluation of lipid accumulation in sebocytes. In kind it is cell-based. The note with it: for inhibition at 0.4 µM: read-out: % Inh 0.4 μM (lipid accumulation, Nile red); for inhibition at 0.8 µM: read-out: % Inh 0.8 μM (lipid accumulation, Nile red). As for the experimental part: The cells were incubated at 37° C. for 24 hours prior to their use as a feeder layer for sebocytes. Human sebocytes were isolated from Dermatome shavings of postoperative pieces of human skin at 0.4-0.8 mm depths (this part of the skin was previously shown to be enriched in sebaceous glands). […] This medium was changed every 3 days (Phase III). Hormones, mixture of hormones i.e. bovine pituitary extract or compounds to be tested were added to the culture at the beginning of phase III. […] The evaluation of lipid accumulation completed using the Nile red method. This method relies on visualization of neutral lipids by Nile red and quantitation by reading of fluorescence at 535 nm excitation, 580 nm emission using a plate reader. The lipid synthesis was evaluated by radioactive labeling using ^14C acetate and quantified by Bio Rad Phosphoimager (Molecular Imager, FX) using 4.1 Software. […] Quantitation of accumulation/inhibition of neutral lipids in sebocytes was accomplished by Nile red binding assay. Briefly, following exposure of sebocytes to test compounds, the cells were allowed to interact with 1 μM Nile red in Hanks buffered saline solution containing DMSO and Pluronic F127. After 4 hours of incubation, washing and incubation overnight, the fluorescence was read at 535 excitation and 580 emission using a fluorescence plate reader. […] Following the procedure described above, select compounds of the present invention were tested for visual and Nile red evaluation of lipid accumulation, with results as listed in Table 9.

The subject of the next test is rabbit adipocytes. The note with it: read-out: EC50 lipolytic activity; cited from earlier work.
The next test concerns rat adipocytes. The note with it: read-out: EC50 lipolytic activity; cited from earlier work.
For test [5], the system named is isolated human and non-human primate adipocytes. Particulars: concentrations as high as 1 μM; cited from earlier work.
Test [6] concerns Male Long-Evans rats, facial nerve compression. As to the kind of experiment: In vivo Facial Nerve Compression Model. On the set-up: species or system rat. The note with it: test compounds p.o. 20 mg/kg bid, αMSH s.c. 70 ug/each 48 hr. From the text: The ability of test compound to provide neuro-protective or neuro-regenerative effects was investigated in a facial nerve compression model. Facial nerve motor axons arise exclusively from neurons within the pons in a well-defined nucleus. Facial nerve compression results in retrograde reactions proximal to the lesion site and Wallerian degeneration at its distal part, which causes diminished whisker movement on the lesioned side.
Male Long-Evans rats (150–180 g) were anesthetized with 3–5% isoflorane for induction and 2% for maintenance during the surgical procedures. The right facial nerve was exposed and compressed with forceps for 30 sec at its exit from the stylomastoid foramen. The left facial nerve was sham-operated and served as an internal control. […] The following morphological abnormalities associated with the functional deficit were observed:
After recovery from anesthesia, the rats were randomly divided into groups for dosing with vehicle, αMSH or test compound, with 6 animals per group. αMSH (s.c., 70 ug/each 48 hr) was used as a positive control. Test compounds were dosed p.o. at 20 mg/kg bid for 14 days. Restoration of whisker movement was monitored daily after the operation using two criteria:
(1) frequency of whisker movement on the lesioned side relative to the opposite side (sham-operated) which served as the baseline control
(2) semi-quantitative measurements (0 to 4+) on strength of the whisker muscles, characterized based on observation of the percentage of moved whiskers, muscle tone of whisker muscles, and the position of the nose. For all observations, the experimental design was blind to the behavioral observer.
The recovery rate of the whisker movement was expressed as percentage of its own internal control (sham-operated), as listed in Table 8.

Usually EC50 stands for the midpoint of the concentration-response curve.

Read-outs that look alike come from different tables or passages of the source.

Chain of MC5-R (P33032 whole entry): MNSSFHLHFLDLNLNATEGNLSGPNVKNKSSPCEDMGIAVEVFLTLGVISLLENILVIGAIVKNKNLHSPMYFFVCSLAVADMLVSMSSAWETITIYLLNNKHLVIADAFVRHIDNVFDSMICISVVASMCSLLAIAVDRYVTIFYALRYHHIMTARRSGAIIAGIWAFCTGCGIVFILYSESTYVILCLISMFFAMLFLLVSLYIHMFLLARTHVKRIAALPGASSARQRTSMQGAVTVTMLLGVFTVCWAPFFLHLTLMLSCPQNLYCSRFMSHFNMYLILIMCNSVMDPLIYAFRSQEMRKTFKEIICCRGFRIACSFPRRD
T1 sequence (P32245 whole entry): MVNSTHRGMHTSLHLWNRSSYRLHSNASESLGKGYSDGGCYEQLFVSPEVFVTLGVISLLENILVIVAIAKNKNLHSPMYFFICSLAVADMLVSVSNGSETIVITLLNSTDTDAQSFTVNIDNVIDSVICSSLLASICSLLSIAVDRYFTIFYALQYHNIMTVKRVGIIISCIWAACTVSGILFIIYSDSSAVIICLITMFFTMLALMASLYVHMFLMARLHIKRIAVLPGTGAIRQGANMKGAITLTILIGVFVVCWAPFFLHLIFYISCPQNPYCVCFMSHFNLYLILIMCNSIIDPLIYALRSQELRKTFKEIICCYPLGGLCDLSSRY

For `COc1ccc(Nc2nc(-c3ccccc3)[n+](-c3ccc(C)cc3)s2)cc1` [Compound 1], the results for the IC50 in [1] and in test [2] were 1.1 µM and 174 nM, respectively. Further, the change in vivo at 10 mg/kg with Food-Deprived Rats (ip, 2 h, ip, read-out: Change in Food Intake 0–2 hrs (%)) is -11.6%; in the test with Food-Deprived Rats (ip, 6 h, ip, read-out: Change in Food Intake 2–6 hrs (%)), -37%. Also, the change in vivo at 30 mg/kg in the test with Food-Deprived Rats (2 h, read-out: Change in Food Intake 0–2 hrs (%)) was -21.2%; in the test with Food-Deprived Rats (6 h, read-out: Change in Food Intake 2–6 hrs (%)), -6.7%. Moreover, in the test on Food-Deprived Rats (fasted rats, 10μ, ip), the “Food Intake 2–6 hrs” value is given as 8.43 g. Moreover, the “Food Intake 0–2 hrs” value in the test with Food-Deprived Rats (fasted rats, ip) was determined as 7.29 g. The activation at 0.05 µM in the test on Hippocampal Cells came to 6%.

Molecule `COc1ccccc1Nc1nc(-c2ccc(C)cc2)[n+](-c2ccccc2OC)s1` [Compound 67] showed an IC50 in test [2] of 130 nM. For the same molecule, in the test with human sebocytes [3], the “Visual* 0.4 μM (inhibition of lipid granule formation)” value was “++ (++ =50%)” and the “Visual* 0.8 μM (inhibition of lipid granule formation)” value is “+++ (+++ = 75%)”. The molecule further registered an IC50 at MC5-R of 246 nM.

In [2], `COc1ccccc1Nc1nc(-c2ccccc2OC)[n+](-c2ccccc2OC)s1` [Compound 76] had an IC50 of 332 nM. In the test on human sebocytes [4], the inhibition at 0.4 µM is 48% and the inhibition at 0.8 µM came out at 88%. Further, in the test on human sebocytes [3], the “Visual* 0.4 μM (inhibition of lipid granule formation)” value is recorded as “++ (++ =50%)” and the “Visual* 0.8 μM (inhibition of lipid granule formation)” value is reported as “+++ (+++ = 75%)”. The molecule also gave an IC50 on MC5-R of 317 nM.

As for `COc1ccccc1-c1nc(Nc2ccccc2Cl)s[n+]1-c1ccccc1OC` [Compound 80], in test [2], the IC50 was determined as 378 nM. Moreover, in the test with human sebocytes [4], the inhibition at 0.4 µM worked out at 61% and the inhibition at 0.8 µM worked out at 91%. Further, in the test on human sebocytes [3], the “Visual* 0.4 μM (inhibition of lipid granule formation)” value is “++ (++ =50%)” and the “Visual* 0.8 μM (inhibition of lipid granule formation)” value was “++++ (++++ = 100%)”. This molecule also gave an IC50 on MC5-R of 138 nM.

With “ACTH: melanocortin neuropeptide arising from pro-opiomelanocortin (POMC) (SYSMEHFRWGKPVGKKRRPVKVYPNGAEDESAEAFPLEF; Corticotropin; UniProt P01189 138-176, looked up)”, the EC50 in the test on rabbit adipocytes was 16.4 nM; in the test with rat adipocytes, 1.34 nM. The effect on lipolysis result in test [5] is reported as “very little effect on lipolysis”.

Consider “α-MSH: alpha-melanocyte stimulating hormone peptide, used as a positive control [reference compound]”, for which, in [6] (D9, % of sham-operated side), the “Percent Recovery of whisker movement D9” value stood at 2.0%. Also, in test [6] (D10), the “Percent Recovery of whisker movement D10” value is reported as 24.6%. Also, the “Percent Recovery of whisker movement D11” value in test [6] (D11) is 60.1%. Also, the “Percent Recovery of whisker movement D12” value in test [6] (D12) was determined as 93.8%. The “Percent Recovery of whisker movement D13” value in test [6] (D13) came to 98.1%. Also, in test [6] (D14), the “Percent Recovery of whisker movement D14” value is on record as 100%. Also, in the test on rabbit adipocytes, the EC50 was 3.7 nM.
